{
  "source": "patent US8053627B2",
  "about": "“Methods for treating demyelination disorders” (University of Chicago, priority 2005, dated 2011)",
  "key": {"[1]": {"system": "oligodendrocytes in adult mice", "assay": "IFN-γ expression in the CNS of adult mice (released from doxycycline at 4 weeks of age)", "type": "in vivo", "description": "Compared with the actively myelinating oligodendrocytes of young growing animals, oligodendrocytes in adult mice produce lower levels of membrane proteins and lipids, just enough to maintain homeostasis in the myelin structure (Morell, et al. (1999) Basic Neurochemistry: Molecular, Cellular, and Medical Aspects (Philadelphia, Pa.: Lippincott-Raven Publishers): 69-93). The ER of oligodendrocytes in adult animals may thus have more spare capacity to process increased protein load and as such may be less sensitive to disruptions of the protein secretory pathway. To examine this possibility, double transgenic mice were allowed to develop to maturity, at which time IFN-γ expression in the CNS was initiated."}, "[2]": {"system": "Hippocampal organotypic cultures", "assay": "Hippocampal organotypic cultures (HOC), in vitro model of myelination, MBP Western blot", "type": "cell-based", "details": "7 days of 100 U/ml IFN-γ exposure", "experimental": "HOCs, were prepared and maintained as described previously (Kunkler and Kraig (1997) J Cereb Blood Flow Metab. 17:2643), and were maintained in vitro for 7 days before use. SAL at various concentrations was combined with 100 U/ml IFN-γ and added to the HOC cultures for 7 days. […] After 7 days of 100 U/ml IFN-γ exposure, the levels of MBP decreased approximately 80% in the HOCs (FIG. 29)."}, "rat oligodendrocytes": {"system": "rat oligodendrocytes", "assay": "Cultured rat oligodendrocytes treated with recombinant rat IFN-γ", "type": "cell-based", "experimental": "To test whether apoptosis of oligodendrocytes that is induced by INF-γ affects ER stress, the effect on the morphology, the degree of apoptosis and the expression of ER markers was studied in a culture of oligodendrocyte precursor cells (OPC). Oligodendrocyte progenitors were cultured from neonatal rat brains (Baerwald, et al. (1998) J. Neurosci Res. 52: 230-239). A mixed glial culture was grown in flasks in medium containing 10% fetal bovine serum (FBS), and when the astrocyte layer became confluent (10-14 days), oligodendrocyte progenitors were separated from astrocytes and microglia using an orbital shaker. Cells, greater than 95% of which were A2B5 positive, GFAP negative and CD11b negative, were cultured in 0.5% FBS containing medium, which also contained PDGF (10 ng/ml) and FGF (5 ng/ml) (both from R&D Systems, Minneapolis, Minn.). Then cells were switched to 0.5% FBS medium without PDGF and FGF for differentiation. After 5 days in the differentiating medium, approximately 40% of cells were positive for myelin protein 2′3′-cyclic nucleotide 3′-phosphodiestaerase (CNP). 70 U/ml recombinant rat IFN-γ (Calbiochem, La Jolla, Calif.) was added to the cells that had been allowed to differentiation for 5 days. […] To examine the oligodendroglial response to general ER stress-inducing agents, progenitor cells that had been cultured in differentaition medium for 5 or 7 days were treated with 2 μg/ml of tunicamycin (Sigma Aldrich) for 6 hours.\nThe level of apoptosis of the OPC cells was determined by double staining CNP (1:200; Sternberger Monoclonals, Lutherville, Md.) and TUNEL using the ApopTag Kit (Serologicals Corp., Norcross, Calif.) and following the manufacturer's instructions. Apoptosis was also evaluated by measuring the activity of caspase-3 in oligodendrocyte lysates using the Fluorimetric Caspase 3 Assay Kit (Sigma, St. Louis, Mo.), according to the manufacturer's instructions.\nTo determine whether INF-γ affects ER function, the RNA expression of ER markers binding immunoglobulin protein (BIP), CAAT enhancer binding protein homologous protein (CHOP), and caspase 12 was determined using real time PCR. RNA was isolated from cultured cells and mice brain using Trizol reagent (Invitrogen, Carlsbad, Calif.) and treated with DNAaseI (Invitrogen) to eliminate genomic DNA. Reverse transcription was performed using Superscript First Strand Synthesis System for RT-PCR kit (Invitrogen). Real-time PCR was performed with iQ Supermix (Bio-Rad, Hercules, Calif.) on a Bio-Rad iQ real-time PCR detection system (Bio-Rad). The following primers and probes (Integrated DNA Technologies Inc., Coralville, Iowa) for real-time PCR were used: mouse CHOP sense primer […] (SEQ ID NO: 34); mouse CHOP antisense primer […] (SEQ ID NO: 35); CHOP probe […] (SEQ ID NO: 36); mouse BIP sense primer […] (SEQ I DNO: 31); mouse BIP antisense primer […] (SEQ ID NO: 32); BIP probe […] (SEQ ID NO: 33); mouse caspase 12 sense primer […] (SEQ ID NO: 37); and mouse caspase antisense primer […] (SEQ ID NO: 38).\nTo determine the effect of INF-γ on the level of phosphorylated eIF-2α and caspase 12 proteins, western blot analysis was performed using the following antibodies anti-eIF-2α (1:500; Santa Cruz), anti-p-eIF-2α (1:1000, Cell signaling Technology), anti-caspase-12 (1:500; Santa Cruz) and anti-actin (1:1000; Sigma, St Louis, Mo.), and according to the following protocol. […]"}},
  "data": [
    {"substance": "IFN-γ: pleotropic cytokine secreted by activated T lymphocytes and natural killer cells; delivered to the CNS by transgene or added as recombinant protein", "values": [
      {"measurement": "BIP and CHOP in the cerebellum", "setting": "[1]; 10-week-old double transgenic mice", "value": "modest induction"},
      {"measurement": "myelin in the CNS (ultrastructural examination)", "setting": "[1]; 10-week-old, wild-type or PERK+/− background", "value": "normal myelin"},
      {"measurement": "oligodendrocyte survival", "setting": "[1]; adult mice, also PERK+/− background", "value": "did not affect"},
      {"measurement": "decrease of MBP levels in the HOCs", "setting": "[2]", "value": "approximately 80%"},
      {"measurement": "caspase-3 activity in cell lysates", "setting": "rat oligodendrocytes; 70 U/ml IFN-γ", "value": "markedly increased"},
      {"measurement": "caspase-12 expression (real-time PCR)", "setting": "rat oligodendrocytes; 70 U/ml IFN-γ", "value": "induction of caspase-12 was observed"},
      {"measurement": "level of phosphorylated eIF-2α (Western blot)", "setting": "rat oligodendrocytes; 70 U/ml IFN-γ", "value": "significantly elevated"},
      {"measurement": "apoptosis (TUNEL and CNP double labeling)", "setting": "rat oligodendrocytes; 70 U/ml IFN-γ for 48 h", "value": "induced apoptosis in a significant number of oligodendrocytes"},
      {"measurement": "cell morphology", "setting": "rat oligodendrocytes; 70 U/ml IFN-γ for 48 h, cells differentiated 5 days", "value": "abnormal morphological changes"},
      {"measurement": "level of the active fragment of caspase-12 (Western blot)", "setting": "rat oligodendrocytes; after 48 h of IFN-γ treatment", "value": "strongly elevated"}
    ]}
  ]
}
